What was measured:
Type in all cases: biochemical
BTK = target: T1, BTK (Homo sapiens, UniProt Q06187); experiment: Btk in vitro inhibitory activity (TR-FRET, mobility shift or radiometric filter binding kinase assay); details: determined using one of the methods outlined in Example 47a, 47b, and 47c
T1 construct: purified from insect cells as a full-length construct containing a N-terminal 6×-His tag; His6 (N); made in house; host or cells: insect cells (baculovirus, Sf21)
Experimental: (§1) Btk kinase activity is determined using a time-resolved fluorescence resonance energy transfer (TR-FRET) methodology. Measurements are performed in a reaction volume of 50 μL using 96-well assay plates. […] The reaction is quenched by the addition of 1.2 equivalents of EDTA (relative to divalent cation) in 25 μL of 1× Lance buffer (Perkin-Elmer). Streptavidin-APC (Perkin-Elmer) and Eu-labeled p-Tyr100 antibody (Perkin-Elmer) in 1× Lance buffer are added in a 25 μL volume to give final concentrations of 100 nM and 2.5 nM, respectively, and the mixture is allowed to incubate for one hour. The TR-FRET signal is measured on a multimode plate reader with an excitation wavelength (λEx) of 330 nm and detection wavelengths (λEm) of 615 and 665 nm. Activity is determined by the ratio of the fluorescence at 665 nm to that at 615 nm. For each compound, enzyme activity is measured at various concentrations of compound. Negative control reactions are performed in the absence of inhibitor in replicates of six, and two no-enzyme controls are used to determine baseline fluorescence levels. Inhibition constants, Ki(app), ware obtained using the program BatchKi (Kuzmic et al. (2000), Anal. Biochem. 286:45-50). IC50s are obtained according to the equation: IC50={Ki(app)/(1+[ATP]/Km^ATP)}+[E]total/2;
(§2) For all kinases, [ATP]=Km^ATP, [Btk]total=0.5 nM and [Lck]total=6 nM.
Kinase activity is measured in vitro using electrophoretic mobility shift assay. The kinase reactions are assembled in a total volume of 25 μL in 384 well plates. […] The reaction is incubated for one hour and is quenched by the addition of 45 μL of termination buffer (100 mM HEPES, pH7.5, 0.01% Triton X-100, 30 mM EDTA). The terminated reactions are analyzed using 12 channel LabChip® 3000 microfluidic detection instrument (Caliper Life Sciences). The enzymatic phosphorylation of the peptide results in a change in net charge, enabling electrophoretic separation of product from substrate peptide. As substrate and product peptides are separated, two peaks of fluorescence are observed. Change in the relative fluorescence intensity of the substrate and product peaks is the parameter measured, reflecting enzyme activity. In the presence of an inhibitor, the ratio between product and substrate is altered: the signal of the product decreases, while the signal of the substrate increases.
Activity in each sample is determined as the product to sum ratio (PSR): P/(S+P), where P is the peak height of the product peptide and S is the peak height of the substrate peptide. For each compound, enzyme activity is measured at various concentrations (12 concentrations of compound spaced by 3× dilution intervals). Negative control samples (0%-inhibition in the absence of inhibitor) and positive control samples (100%-inhibition, in the presence of 20 mM EDTA) are assembled in replicates of four and are used to calculate %-inhibition values for each inhibitor at each concentration. Percent inhibition (Pinh) is determined using following equation: Pinh=(PSR0%−PSRinh)/(PSR0%−PSR100%)*100,
where PSRmh is the product sum ratio in the presence of inhibitor, PSR0% is the average product sum ration in the absence of inhibitor and PSR100% is the average product sum ratio in 100%-inhibition control samples;
The IC50 values of inhibitors are determined by 4 parameter sigmoidal dose-response model fitting of the inhibition curves (Pinh versus inhibitor concentration) using XLfit 4 software.
Human Btk kinase (Genbank accession # NP_000052) was purified from insect cells as a full-length construct containing a N-terminal 6×-His tag. Btk kinase activity was determined using a radiometric filter binding assay. Measurements are performed in a low μL reaction volume 384-well assay plates. […]

EGFR = EGFR (Homo sapiens, UniProt P00533); experiment: EGFR kinase inhibition (in vitro kinase assay)
Lck = Lck (Homo sapiens, UniProt P06239); experiment: Lck kinase inhibition (in vitro kinase assay)
Experimental: as §1, §2

Chain of EGFR (P00533 25-1210, species assumed): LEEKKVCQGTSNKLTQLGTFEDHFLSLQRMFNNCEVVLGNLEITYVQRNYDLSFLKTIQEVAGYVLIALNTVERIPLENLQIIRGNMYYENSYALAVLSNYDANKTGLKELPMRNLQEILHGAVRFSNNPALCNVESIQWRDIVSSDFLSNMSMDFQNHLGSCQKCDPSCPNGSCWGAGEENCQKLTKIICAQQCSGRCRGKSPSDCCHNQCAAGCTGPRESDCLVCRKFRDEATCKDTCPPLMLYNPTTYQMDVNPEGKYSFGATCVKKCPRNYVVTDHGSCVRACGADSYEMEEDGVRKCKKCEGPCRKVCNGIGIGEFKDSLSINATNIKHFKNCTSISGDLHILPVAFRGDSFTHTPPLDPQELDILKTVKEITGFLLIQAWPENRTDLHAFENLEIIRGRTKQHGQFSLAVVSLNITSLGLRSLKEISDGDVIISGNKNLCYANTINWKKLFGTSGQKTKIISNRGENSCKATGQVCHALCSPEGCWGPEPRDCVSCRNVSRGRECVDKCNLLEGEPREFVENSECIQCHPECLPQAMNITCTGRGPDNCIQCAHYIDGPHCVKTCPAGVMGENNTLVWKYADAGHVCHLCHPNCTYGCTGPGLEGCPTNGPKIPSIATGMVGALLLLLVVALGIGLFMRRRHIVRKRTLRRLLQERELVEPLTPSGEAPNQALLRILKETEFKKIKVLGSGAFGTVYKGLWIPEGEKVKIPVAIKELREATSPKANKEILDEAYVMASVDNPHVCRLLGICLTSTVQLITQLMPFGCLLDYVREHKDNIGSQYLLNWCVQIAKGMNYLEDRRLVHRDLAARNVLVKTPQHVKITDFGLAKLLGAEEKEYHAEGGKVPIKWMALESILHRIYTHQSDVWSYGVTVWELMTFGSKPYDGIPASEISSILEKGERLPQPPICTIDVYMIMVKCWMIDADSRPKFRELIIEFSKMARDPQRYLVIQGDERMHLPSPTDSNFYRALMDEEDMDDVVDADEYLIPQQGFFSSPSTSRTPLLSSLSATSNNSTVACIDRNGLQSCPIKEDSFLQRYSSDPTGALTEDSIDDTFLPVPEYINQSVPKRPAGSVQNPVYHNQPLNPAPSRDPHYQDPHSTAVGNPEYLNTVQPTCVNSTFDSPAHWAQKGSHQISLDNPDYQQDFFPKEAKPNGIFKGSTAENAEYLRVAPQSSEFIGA
Chain of Lck (P06239 whole entry, species assumed): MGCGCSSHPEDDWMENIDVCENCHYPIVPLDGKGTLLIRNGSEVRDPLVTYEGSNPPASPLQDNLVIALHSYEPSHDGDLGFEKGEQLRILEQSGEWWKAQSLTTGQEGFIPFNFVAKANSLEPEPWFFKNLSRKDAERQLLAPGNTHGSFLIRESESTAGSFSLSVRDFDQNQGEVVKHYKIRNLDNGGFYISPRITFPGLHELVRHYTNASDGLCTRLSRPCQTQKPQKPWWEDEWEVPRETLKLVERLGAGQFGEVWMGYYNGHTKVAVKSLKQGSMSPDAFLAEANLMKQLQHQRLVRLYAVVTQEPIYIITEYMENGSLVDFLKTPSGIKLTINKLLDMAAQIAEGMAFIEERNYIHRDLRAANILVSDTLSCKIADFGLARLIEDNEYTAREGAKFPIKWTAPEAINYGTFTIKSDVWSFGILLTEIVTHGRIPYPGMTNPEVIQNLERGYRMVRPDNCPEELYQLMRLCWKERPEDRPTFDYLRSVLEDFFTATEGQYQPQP
T1 sequence (Q06187 whole entry): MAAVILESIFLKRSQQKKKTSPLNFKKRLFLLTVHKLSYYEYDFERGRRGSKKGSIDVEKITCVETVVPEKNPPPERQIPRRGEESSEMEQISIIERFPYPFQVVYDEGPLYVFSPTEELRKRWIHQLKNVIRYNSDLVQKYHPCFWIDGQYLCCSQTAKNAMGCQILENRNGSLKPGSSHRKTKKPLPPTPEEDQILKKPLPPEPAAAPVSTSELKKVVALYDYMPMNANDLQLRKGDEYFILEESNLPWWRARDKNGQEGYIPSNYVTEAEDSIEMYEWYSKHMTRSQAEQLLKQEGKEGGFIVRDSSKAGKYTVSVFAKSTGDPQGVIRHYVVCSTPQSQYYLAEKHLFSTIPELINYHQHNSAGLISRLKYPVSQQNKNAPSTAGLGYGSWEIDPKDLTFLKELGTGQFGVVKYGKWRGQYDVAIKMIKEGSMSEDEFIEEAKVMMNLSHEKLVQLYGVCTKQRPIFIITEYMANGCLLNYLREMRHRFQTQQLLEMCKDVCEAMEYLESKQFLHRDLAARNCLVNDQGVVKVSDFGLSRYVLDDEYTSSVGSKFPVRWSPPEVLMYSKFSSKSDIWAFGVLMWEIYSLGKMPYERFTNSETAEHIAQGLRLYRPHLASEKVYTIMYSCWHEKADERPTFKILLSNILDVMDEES

## Cc1ccnc(NC(=O)c2ccc(-c3nn([C@@H]4CCN(C(=O)/C=C/CN(C)C5CC5)C4)c4ncnc(N)c34)cc2)c1 [Example 1, (R,E)-4-(4-amino-1-(1-(4-(cyclopropyl(methyl)amino)but-2-enoyl)pyrrolidin-3-yl)-1H-pyrazolo[3,4-d]pyrimidin-3-yl)-N-(4-methylpyridin-2-yl)benzamide]
BTK
  IC50: < 1 nM
EGFR
  IC50: 1000 to 10000 nM
Lck
  IC50: 100 to 1000 nM

## CN(C/C=C/C(=O)N1CC[C@@H](n2nc(-c3ccc(C(=O)Nc4cc(C(F)(F)F)ccn4)cc3)c3c(N)ncnc32)C1)C1CC1 [Example 2, (R,E)-4-(4-Amino-1-(1-(4-(cyclopropyl(methyl)amino)but-2-enoyl)pyrrolidin-3-yl)-1H-pyrazolo[3,4-d]pyrimidin-3-yl)-N-(4-(trifluoromethyl)pyridin-2-yl)benzamide]
BTK
  IC50: < 1 nM
EGFR
  IC50: 100 to 1000 nM
Lck
  IC50: 100 to 1000 nM

## CCCc1ccnc(NC(=O)c2ccc(-c3nn([C@@H]4CCN(C(=O)/C=C/CN(C)C5CC5)C4)c4ncnc(N)c34)cc2)c1 [Example 3, (R,E)-4-(4-amino-1-(1-(4-(cyclopropyl(methyl)amino)but-2-enoyl)pyrrolidin-3-yl)-1H-pyrazolo[3,4-d]pyrimidin-3-yl)-N-(4-propylpyridin-2-yl)benzamide]
BTK
  IC50: < 1 nM
EGFR
  IC50: 100 to 1000 nM
Lck
  IC50: 100 to 1000 nM

## CCc1ccnc(NC(=O)c2ccc(-c3nn([C@@H]4CCN(C(=O)/C=C/CN(C)C5CC5)C4)c4ncnc(N)c34)cc2)c1 [Example 4, (R,E)-4-(4-amino-1-(1-(4-(cyclopropyl(methyl)amino)but-2-enoyl)pyrrolidin-3-yl)-1H-pyrazolo[3,4-d]pyrimidin-3-yl)-N-(4-ethylpyridin-2-yl)benzamide]
BTK
  IC50: < 1 nM
EGFR
  IC50: 1000 to 10000 nM
Lck
  IC50: 100 to 1000 nM

## CCCc1ccnc(NC(=O)c2ccc(-c3nn([C@@H]4CCN(C(=O)/C=C/CN(C)C)C4)c4ncnc(N)c34)cc2)c1 [Example 33, (R,E)-4-(4-amino-1-(1-(4-(dimethylamino)but-2-enoyl)pyrrolidin-3-yl)-1H-pyrazolo[3,4-d]pyrimidin-3-yl)-N-(4-propylpyridin-2-yl)benzamide]
BTK
  IC50: < 1 nM

## CN(C/C=C/C(=O)N1CCC[C@@H](n2nc(-c3ccc(C(=O)Nc4ccccn4)cc3)c3c(N)ncnc32)C1)C1CC1 [Example 34, (R,E)-4-(4-amino-1-(1-(4-(cyclopropyl(methyl)amino)but-2-enoyl)piperidin-3-yl)-1H-pyrazolo[3,4-d]pyrimidin-3-yl)-N-(pyridin-2-yl)benzamide]
BTK
  IC50: < 100 nM

## Cc1ccnc(NC(=O)c2ccc(-c3nn([C@@H]4CCCN(C(=O)/C=C/CN(C)C5CC5)C4)c4ncnc(N)c34)cc2)c1 [Example 35, (R,E)-4-(4-amino-1-(1-(4-(cyclopropyl(methyl)amino)but-2-enoyl)piperidin-3-yl)-1H-pyrazolo[3,4-d]pyrimidin-3-yl)-N-(4-methylpyridin-2-yl)benzamide]
BTK
  IC50: < 1 nM

## CN(C/C=C/C(=O)N1CCC[C@@H](n2nc(-c3ccc(C(=O)Nc4cc(C(F)(F)F)ccn4)cc3)c3c(N)ncnc32)C1)C1CC1 [Example 36, (R,E)-4-(4-amino-1-(1-(4-(cyclopropyl(methyl)amino)but-2-enoyl)piperidin-3-yl)-1H-pyrazolo[3,4-d]pyrimidin-3-yl)-N-(4-(trifluoromethyl)pyridin-2-yl)benzamide]
BTK
  IC50: < 1 nM

## CCCc1ccnc(NC(=O)c2ccc(-c3nn([C@@H]4CCCN(C(=O)/C=C/CN(C)C5CC5)C4)c4ncnc(N)c34)cc2)c1 [Example 37, (R,E)-4-(4-amino-1-(1-(4-(cyclopropyl(methyl)amino)but-2-enoyl)piperidin-3-yl)-1H-pyrazolo[3,4-d]pyrimidin-3-yl)-N-(4-propylpyridin-2-yl)benzamide]
BTK
  IC50: < 1 nM

## CN(C/C=C/C(=O)N1CCC[C@@H](n2nc(-c3ccc(C(=O)Nc4cc(C#N)ccn4)cc3)c3c(N)ncnc32)C1)C1CC1 [Example 38, (R,E)-4-(4-amino-1-(1-(4-(cyclopropyl(methyl)amino)but-2-enoyl)piperidin-3-yl)-1H-pyrazolo[3,4-d]pyrimidin-3-yl)-N-(4-cyanopyridin-2-yl)benzamide]
BTK
  IC50: < 1 nM

## CC(C)c1ccnc(NC(=O)c2ccc(-c3nn([C@@H]4CCCN(C(=O)/C=C/CN(C)C5CC5)C4)c4ncnc(N)c34)cc2)c1 [Example 39, (R,E)-4-(4-amino-1-(1-(4-(cyclopropyl(methyl)amino)but-2-enoyl)piperidin-3-yl)-1H-pyrazolo[3,4-d]pyrimidin-3-yl)-N-(4-isopropylpyridin-2-yl)benzamide]
BTK
  IC50: < 100 nM

## CN(C)C/C=C/C(=O)N1CCC[C@@H](n2nc(-c3ccc(C(=O)Nc4ccccn4)cc3)c3c(N)ncnc32)C1 [Example 40, (R,E)-4-(4-amino-1-(1-(4-(dimethylamino)but-2-enoyl)piperidin-3-yl)-1H-pyrazolo[3,4-d]pyrimidin-3-yl)-N-(pyridin-2-yl)benzamide]
BTK
  IC50: < 1 nM

## Cc1ccnc(NC(=O)c2ccc(-c3nn([C@@H]4CCCN(C(=O)/C=C/CN(C)C)C4)c4ncnc(N)c34)cc2)c1 [Example 41, (R,E)-4-(4-amino-1-(1-(4-(dimethylamino)but-2-enoyl)piperidin-3-yl)-1H-pyrazolo[3,4-d]pyrimidin-3-yl)-N-(4-methylpyridin-2-yl)benzamide]
BTK
  IC50: < 1 nM

## CN(C)C/C=C/C(=O)N1CCC[C@@H](n2nc(-c3ccc(C(=O)Nc4cc(C(F)(F)F)ccn4)cc3)c3c(N)ncnc32)C1 [Example 42, (R,E)-4-(4-amino-1-(1-(4-(dimethylamino)but-2-enoyl)piperidin-3-yl)-1H-pyrazolo[3,4-d]pyrimidin-3-yl)-N-(4-(trifluoromethyl)pyridin-2-yl)benzamide]
BTK
  IC50: < 1 nM

## CCCc1ccnc(NC(=O)c2ccc(-c3nn([C@@H]4CCCN(C(=O)/C=C/CN(C)C)C4)c4ncnc(N)c34)cc2)c1 [Example 43, (R,E)-4-(4-amino-1-(1-(4-(dimethylamino)but-2-enoyl)piperidin-3-yl)-1H-pyrazolo[3,4-d]pyrimidin-3-yl)-N-(4-propylpyridin-2-yl)benzamide]
BTK
  IC50: < 1 nM

## CC(C)c1ccnc(NC(=O)c2ccc(-c3nn([C@@H]4CCCN(C(=O)/C=C/CN(C)C)C4)c4ncnc(N)c34)cc2)c1 [Example 44, (R,E)-4-(4-amino-1-(1-(4-(dimethylamino)but-2-enoyl)piperidin-3-yl)-1H-pyrazolo[3,4-d]pyrimidin-3-yl)-N-(4-isopropylpyridin-2-yl)benzamide]
BTK
  IC50: < 1 nM

## CN(C)C/C=C/C(=O)N1CCC[C@@H](n2nc(-c3ccc(C(=O)Nc4cc(C#N)ccn4)cc3)c3c(N)ncnc32)C1 [Example 45, (R,E)-4-(4-amino-1-(1-(4-(dimethylamino)but-2-enoyl)piperidin-3-yl)-1H-pyrazolo[3,4-d]pyrimidin-3-yl)-N-(4-cyanopyridin-2-yl)benzamide]
BTK
  IC50: < 1 nM

## CN(C/C=C/C(=O)N1CC[C@@H](n2nc(-c3ccc(C(=O)Nc4ccccn4)cc3)c3c(N)ncnc32)C1)C1CC1 [Example 46, (R,E)-4-(4-amino-1-(1-(4-(cyclopropyl(methyl)amino)but-2-enoyl)pyrrolidin-3-yl)-1H-pyrazolo[3,4-d]pyrimidin-3-yl)-N-(pyridin-2-yl)benzamide]
Lck
  IC50: 100 to 1000 nM

From patent US9624224B2, “Inhibitors of Bruton's tyrosine kinase” (Pharmacyclics LLC, priority 2013, dated 2017)
